One series concerns Caco-2 cells. In words: Cell viability, MTT assay, Caco-2. The class given is cell-based, human. The following applies: for IC50: Homo sapiens. How it is done:
(§1) A (4,5-dimethylthiazol-2-yl)-2,5-diphenyltetrazolium) MTT assay was used for the determination of the cytotoxic effects of three compounds (5, 6, and 7) in vitro (Figure 9). Hela, HT1080, Caco-2, and A549 cells were treated with various concentrations of the compounds employed in the current study (0, 1, 10, 50, 100, 500 µM) for 48 h.
(§2) Figure 9 Normalised percentage cell viability inhibition of compounds 5 and 7, measured by three independent MTT assays in A549 and Caco-2 cell lines and by three independent experiments with crystal violet staining in Hela and HT1080 cell lines. Cells were treated with different concentrations (from 1 and up to 500 µM) of the compounds for 48 h, * = first concentration significant reduction in cell viability in comparison to the control.
(§3) Human fibrosarcoma (HT1080), cervical cancer (Hela), colorectal cancer (Caco-2), and human lung cancer cell lines (A549) were purchased from […] (ECACC, Salisbury, UK). Cervical cancer cells (Hela) and fibrosarcoma cells (HT-1080) were maintained in a RPMI medium supplemented with 10% foetal bovine serum (FBS) and were expanded at 37 °C and 5% CO2. Caco-2 and A549 cells were grown in Dulbecco’s modified eagle medium (DMEM)-high glucose (biowest, Riverside, MO, USA) enriched with (10% v/v) (foetal bovine serum) FBS (biowest, Riverside, MO, USA) and antibiotics (100 U/mL penicillin, 100 μg mL streptomycin) (Lonza, Basel, Switzerland). Cells were maintained at 37 °C in an incubator with 5% CO2 atmosphere. Part of the experiments were carried out in CERRMA (Center of Excellence for Research in Regenerative Medicine and its Applications), Faculty of Medicine, Alexandria University.
(§4) The cell viability of A549 and Caco-2 cells was measured using MTT assays. Cells were incubated for 48 h in triplicates with the compounds of interest. […] Cells were seeded in 96-well plates at a density of 5 × 10^3 cells/well and were maintained in complete media. After adherence for 48 h, cells were treated with different concentrations of newly synthesized compounds ranging from […]. The plates were incubated at 5% CO2 and 37 °C. After 48 h, the medium was discarded, and cells were incubated with 100 μL MTT (Serva, Heidelberg, Germany) solution (0.5 mg/mL) for 3 h at 5% CO2 and 37 °C. Finally, the reagent was discarded and replaced with 100 μL DMSO. The optical density was measured at a wavelength of 570 nm (Tecan, Infinite F50, Magellan reader control and data analysis software, Mennedov, Switzerland). The percentage cell viability data were obtained by normalization of the optical density (OD) values for all groups to the OD of the control group.
On the technique in general: Tetrazolium dyes change colour on reduction, which living cells bring about.

The subject of a further series is HT1080 cells. The series can be described thus: Cell viability, crystal violet staining, HT1080. The class given is cell-based, human. The following applies: for first concentration with significant reduction in cell viability / IC50: HT1080, 48 h; for first concentration with significant reduction in cell viability: versus control; for IC50: Homo sapiens, HT-1080. How it is done:
as §1, §2, §3
(§5) Cervical Hela and HT-1080 cells (2 × 10^4 per well) were seeded in 96-well tissue culture plates in 100 μL cell culture medium. Cells were incubated for 48 h in triplicates with the compounds of interest. The cytotoxic effect was assessed by crystal violet staining and measured at 595 nm. To normalize cell viability values each plate included a triplicate of cells treated with DMSO, the vehicle of the compound to calculate 100% viable cells. At the same time, a triplicate of cells was simulated with a cytotoxic combination (200 ng/mL TNF, 200 ng/mL CD95L, 200 ng/mL TRAIL, 25 µg/mL CHX, 1% (w/v) sodium azide) to elucidate maximal cell death, and thus 0% viability. All other viability values were normalized depending on the averages of these triplicates and evaluated by the Graph Pad Prism 5 software (La Jolla, CA, USA).

For series [1], the system named is A549 cells. The series can be described thus: Cell viability, MTT assay, A549. The conditions noted are these: for first concentration with significant reduction in cell viability / IC50: A549, 48 h; for first concentration with significant reduction in cell viability: versus control; for IC50: Homo sapiens. It is filed as cell-based, human. How it is done: as §1, §2, §3, §4

For the next series, the system named is Hela cells. In words: Cell viability, crystal violet staining, Hela. The class given is cell-based, human. The conditions noted are these: 48 h; for first concentration with significant reduction in cell viability: versus control; for IC50: Homo sapiens, HeLa. How it is done:
as §1, §2, §3, §5

The test system of the next series is male albino rats. In words: In vivo toxicity evaluation: serum hepatic and renal biochemical parameters in rats. Also on record: species or system rat. The following applies: 20 mg/kg/day orally twice weekly for 6 weeks; for ALP / ALT / AST / Albumin / Bilirubin / Cholesterol / Triglyceride: rat serum; for Overall in vivo toxicity assessment: rats, versus healthy control group. From the text: Before the assessment of the anticancer activity of the compounds, in the present study, we examined their toxicity in vivo on normal tissues.
Male albino rats (150 g average weight) were purchased from the animal house of the Institute of Graduate Studies and Research, Alexandria University, Egypt. The animals were housed under standardized environmental conditions, fed with a standard diet and water, and left to acclimate to the environment for one week prior to inclusion in the experiment. All of the animal experiments were conducted in accordance with the guidelines for the care and use of laboratory animals of the National Institutes of Health (NIH 1985). The experimental procedures employed were ethically reviewed and approved by the Institutional Animal Care and Use Committee (IACUC) of Alexandria University (Ethical approval number of the study: AU14-200922-1-8A) and “declaration of Helsinki”. Four groups of rats were administered 20 mg/kg/day of compounds 5, 6, and 7 orally twice weekly for 6 weeks. Liver enzymes and other liver biomarkers together with creatinine and urea were measured (Table 1).
The collected blood was allowed to clot, the serum was separated at 2000× g, and the biochemical markers of hepatic damage, including serum ALT, AST [33], ALP [34], albumin [35], total bilirubin [36], TG [37], urea, creatinine, and total cholesterol, were estimated according to previously reported methods. These parameters were determined using available commercial kits (ARE) following the instructions of the manufacturer.

A further series relates to BCR-ABL tyrosine kinase. Also on record: method as in earlier work. The following applies: literature statement; cited from earlier work.
For series [2], the system named is Ki67 expression in A549 cells. In words: Proliferation assay, Ki67 expression by flow cytometry. It is filed as cell-based, human. The conditions noted are these: A549, IC50 concentration, 48 h; control cells 85.61%. How it is done: (§6) Figure 10 (a) Apoptosis analysis in A549 cells following treatment of cells with compound 7 at IC50 concentration. Flowcytometry was conducted using Alexa Fluor 488 annexin V conjugate. […] (b) Western blot analysis showing cleaved caspase-3 protein expression level. […] (c) Proliferation analysis (Ki67) in A549 cells following treatment cells with compound 7 at IC50 concentration. The analysis was done using flow cytometry and the Ki-67 FITC antibody.
Ki67 expression was determined using a flow cytometry assay. […] The percentage of cells labelled using Ki67 antibody in the control cells was 85.61%, whereas those labelled with the same antibody following treatment with compound 7 was 68.06%.
For evaluating the proliferation status of cells, cells were plated in 6-well plates at a density of 2 × 10^4 cells per well for the cell proliferation assay. After incubation for 24 h, 70% confluency is reached.
(Flow cytometry measures light scatter and fluorescence of single cells or particles in a stream.)

Series [3] deals with A549 cells. The series can be described thus: Apoptosis assay, annexin V flow cytometry. It is filed as cell-based, human. How it is done: (§7) In order to exclude apoptotic effects as a mechanism for the observed anticancer activity of the compounds and according to the in silico results, induction of apoptosis by compound 7 was examined using an annexin V flow cytometry assay (Figure 10a).
as §6
For evaluating cell apoptosis, cells were plated in 6-well plates at a density of 2 × 10^4 cells per well. After incubation for 24 h, 70% confluency is reached. Cells were then labelled using the FITC Annexin V apoptosis detection kit I (BD Pharminogen, San Diego, CA, USA) according to manufacturer’s instructions (Cell Signaling Technology; Flow Cytometry, Methanol Permeabilization Protocol) and analysed by using BD FACS Calibur flow cytometry and Cell Quest™ software.

The test system of series [4] is cleaved caspase-3 protein. The series can be described thus: Western blot of cleaved caspase-3 protein expression. It is filed as cell-based. The conditions noted are these: IC50 concentration, versus untreated cells. How it is done: as §7, §6
A western blot assay was carried out to examine cleaved caspase-3 protein expression levels following the different treatments with different concentrations of the compound that were employed in the current study. Cells (5 × 10^5 cells/well) were seeded in 12-well plates and were induced the next day with the compounds of interest for 48 h. […] The proteins of interest were detected with a suitable primary antibody (Anti-Caspase-3, 17,19 kD, Rabbit polyclonal ≠ 9661, from Cell Signaling Technology, Beverly, MA, USA) and horseradish peroxidase conjugated secondary antibodies (Dako, Glostrup, Denmark and Cell Signaling Technology, Beverly, MA, USA).
(In general: Immunoblotting shows a protein as a band on a membrane.)

For orientation: IC50 means the concentration at which inhibition is half-maximal. `COc1ccc(C=NNc2ncnc3c2cnn3-c2ccccc2)cc1` [Compound 5, 2-(4-Methoxybenzylidene)-1-(1-phenyl-1H-pyrazolo[3,4-d]pyrimidin-4-yl)hydrazine] gave an IC50 with Caco-2 cells (Caco-2, 48 h) of 76.9 µM. For the same compound, in the series with HT1080 cells, the “first concentration with significant reduction in cell viability” value is on record as 50 µM and the half-inhibitory concentration (IC50) came out at 96.2 µM. For the same compound, in the series with A549 cells [1], the “first concentration with significant reduction in cell viability” value is on record as 50 µM and the midpoint of inhibition, the IC50, lay at 148 µM. In addition, in the series on Hela cells (Hela), the “first concentration with significant reduction in cell viability” value was determined as 50 µM. For the same compound, the IC50 in the series on Hela cells amounted to 74.8 µM. In the series on male albino rats, this compound displayed an ALP of 2.1 ± 0.52 U/L, an ALT of 43 ± 5.2 U/L, an AST of 102 ± 8.7 U/L and an Albumin of 4.4 ± 0.37 g/dL. In the series on male albino rats, the Bilirubin came to 0.11 ± 0.12 mg/dL, the Cholesterol is given as 71 ± 4.8 mg/dL, the Triglyceride is given as 72 ± 8.6 mg/dL and the “Overall in vivo toxicity assessment” value is “safe compounds comparable to the healthy control group”.

`COc1ccc(/C=N/Nc2ncnc3c2cnn3-c2ccccc2)cc1OC` [Compound 6]: in the series with Caco-2 cells (Caco-2, up to 500 µM, 48 h, data not shown), the “effect on cell viability” value is given as “did not show any significant decrease in the cell viability”. Further, in the series on HT1080 cells (HT1080, up to 500 µM, 48 h, data not shown), the “effect on cell viability” value is reported as “did not show any significant decrease in the cell viability”. Moreover, the “effect on cell viability” value in the series on A549 cells [1] (A549, up to 500 µM, 48 h, data not shown) is on record as “did not show any significant decrease in the cell viability”. The “effect on cell viability” value in the series with Hela cells (Hela, up to 500 µM, data not shown) is reported as “did not show any significant decrease in the cell viability”. Also, in the series on male albino rats, the ALP was 2 ± 0.12 U/L, the ALT was 44 ± 5.7 U/L, the AST is listed as 100 ± 9.8 U/L and the Albumin was 4.6 ± 1.8 g/dL. In the series with male albino rats, the Bilirubin came out at 0.12 ± 0.12 mg/dL, the Cholesterol was found to be 69 ± 7.8 mg/dL, the Triglyceride is on record as 75 ± 6.5 mg/dL and the “Overall in vivo toxicity assessment” value is listed as “safe compounds comparable to the healthy control group”. Besides, the “inhibition of BCR-ABL tyrosine kinase” value in the series with BCR-ABL tyrosine kinase is recorded as “capable of inhibiting BCR-ABL tyrosine kinase”.

Take `COc1cc(C=NNc2ncnc3c2cnn3-c2ccccc2)cc(OC)c1OC` [Compound 7, 2-(3,4,5-Trimethoxybenzylidene)-1-(1-phenyl-1H-pyrazolo[3,4-d]pyrimidin4yl)hydrazine]: the “first concentration with significant reduction in cell viability” value with Caco-2 cells (Caco-2, 48 h, versus control) is given as 1 µM. In addition, inhibition in the series with Caco-2 cells (Caco-2, 48 h) was half-maximal at 73.1 µM (IC50). Moreover, in [2], the “percentage of cells labelled using Ki67 antibody” value is 68.06%. In the series on HT1080 cells, the “first concentration with significant reduction in cell viability” value is given as 25 µM and the 50% inhibitory concentration (IC50) stood at 43.8 µM. In the series on A549 cells [1], the “first concentration with significant reduction in cell viability” value was 1 µM and the 50% inhibitory concentration (IC50) came out at 68.8 µM. In addition, the “effect on viability of cells through apoptosis” value in the series with A549 cells [3] (A549, 24 h incubation, versus untreated group) is listed as “no significant effect”. In the series with A549 cells [3] (A549, IC50 concentration, control untreated 97.8), the “percentage gating in the lower left quadrant (annexin V)” value came to 97.58%. Further, in the series on Hela cells (Hela), the “first concentration with significant reduction in cell viability” value was 12.5 µM. Also, the IC50 in the series with Hela cells is 17.5 µM. In [4], the “change in cleaved caspase-3 protein expression level” value was “no significant change”. In addition, in the series with male albino rats, the ALP is on record as 1.8 ± 0.88 U/L, the ALT was found to be 42 ± 7.2 U/L, the AST turned out to be 103 ± 8.8 U/L and the Albumin worked out at 4.6 ± 1.1 g/dL. Moreover, in the series on male albino rats, the Bilirubin is 0.11 ± 0.32 mg/dL, the Cholesterol came out at 71 ± 5.8 mg/dL, the Triglyceride is reported as 77 ± 7.5 mg/dL and the “Overall in vivo toxicity assessment” value is given as “safe compounds comparable to the healthy control group”.

The record behind these values is publication PMC8156061, “Design, Synthesis, and Anticancer Screening for Repurposed Pyrazolo[3,4-d]pyrimidine Derivatives on Four Mammalian Cancer Cell Lines” (Molecules, 2021).
